From paper PMC9266368, “Synthesis and Biological Evaluation of Small Molecules as Potential Anticancer Multitarget Agents” (International Journal of Molecular Sciences, 2022)
Values joined by “and” are separate entries in the source; they are usually repeats but may differ in a detail not shown here. Identical values can stand only once.

What was measured:
[1] = test system: HT-29 (colon adenocarcinoma); assay: MTT cell viability assay, HT-29; assay type: cell-based; conditions: Homo sapiens, HT-29, 48 h, 2 days incubation, average ±SD of three experiments
Protocol: (§1) The effects of triazole derivatives 1–26 on the cell viability were determined by MTT assay, and the IC50 values were determined toward the human tumor cell lines HT-29 (colon adenocarcinoma), A-549 (lung adenocarcinoma), and MCF-7 (breast adenocarcinoma), as well as toward the non-tumor cell line HEK-293 (human embryonic kidney cells).
(§2) In 96-well plates, 3 × 10^3 (A549 and HEK-293) or 5 × 10^3 (HT-29, MCF-7) cells per well were incubated with serial dilutions of the tested compounds in a total volume of 100 μL of their growth media. The 3-(4,5-dimethylthiazol-2-yl)-2,5-diphenyltetrazolium bromide (MTT; Sigma Chemical Co.) dye reduction assay in 96-well microplates was used. After 2 days of incubation (37 °C, 5% CO2 in a humid atmosphere), 10 μL of MTT (5 mg/mL in phosphate-buffered saline, PBS) was added to each well, and the plate was incubated for a further 3 h (37 °C). After that, the supernatant was discarded and replaced by 100 µL of DMSO to dissolve formazan crystals. The absorbance was then read at 550 nm by spectro-photometry. For all concentrations of compound, cell viability was expressed as the percentage of the ratio between the mean absorbance of treated cells and the mean absorbance of untreated cells. Three independent experiments were performed, and the IC50 values (i.e., concentration half inhibiting cell proliferation) were graphically determined by using GraphPad Prism 4 software (2019).

[2] = test system: HEK-293 (human embryonic kidney cells); assay: MTT cell viability assay, HEK-293; assay type: cell-based; conditions: HEK293, 48 h, 2 days incubation, non-tumor cell line, average ±SD of three experiments
Protocol: as §1, §2

membrane PD-L1 (mPD-L1) = target: T1, membrane PD-L1 (mPD-L1) (Homo sapiens, UniProt Q9NZQ7); assay: Membrane PD-L1 relative quantification by flow cytometry; assay type: cell-based; conditions: for mPD-L1 relative detection, A-549 / mPD-L1 relative detection, HT-29 / mPD-L1 relative detection, MCF-7: 24 h, 100 or 10 μM (Table 7), percentage referred to DMSO control
T1 construct: endogenous in cells; host or cells: HT-29, A-549, MCF-7
T1 sequence (Q9NZQ7 19-290): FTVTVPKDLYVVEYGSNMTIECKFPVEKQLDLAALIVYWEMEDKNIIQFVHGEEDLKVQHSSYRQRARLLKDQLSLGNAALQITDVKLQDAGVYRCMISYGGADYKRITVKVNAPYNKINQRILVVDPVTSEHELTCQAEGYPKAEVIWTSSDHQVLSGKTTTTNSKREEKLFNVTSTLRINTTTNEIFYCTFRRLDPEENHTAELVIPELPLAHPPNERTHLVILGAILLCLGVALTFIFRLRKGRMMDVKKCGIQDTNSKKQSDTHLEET
Protocol: Based on antiproliferative activity of synthetized derivatives, we decided to study the effect of the amino derivatives 14–26 on the expression of both membrane targets PD-L1 and VEGFR-2 (mPD-L1 and mVEGFR-2). The evaluation was performed on three cancer cell lines (HT-29, A-549, and MCF-7) by flow cytometry after 24 h of treatment with the corresponding compounds. Compounds were used at a 100 or 10 μM concentration depending on their IC50 value (see Table 1 in Materials and Methods section). The presence of both targets in the membrane was relatively determined by using DMSO-treated cells as a negative control.
To study the effect of the compounds on every biological target in cancer cell lines the compounds were used at a 100 or 10 μM dose, depending on their IC50 and the treated cell line.
(§3) For the assay, 10^5 cells per well were incubated for 24 h with the corresponding dose of the tested compound in a total volume of 500 μL of their growth media.
To detect membrane PD-L1 and VEGFR-2, after the cell treatments, they were collected, fixed with 4% in PBS paraformaldehyde, and stained with FITC Mouse monoclonal Anti-Human VEGFR-2 (ab184903) and Alexa Fluor® 647 Rabbit monoclonal Anti-PD-L1 (ab215251).

[3] = target: T2, membrane VEGFR-2 (mVEGFR-2) (Homo sapiens, UniProt P35968); assay: Membrane VEGFR-2 relative quantification by flow cytometry; assay type: cell-based; conditions: for mVEGFR-2 relative detection, A-549 / mVEGFR-2 relative detection, HT-29 / mVEGFR-2 relative detection, MCF-7: 24 h, 100 or 10 μM (Table 7), sorafenib 10 μM, percentage referred to DMSO control; for Inhibition of membrane VEGFR-2, HT-29: with respect to untreated cells
T2 construct: endogenous in cells; host or cells: HT-29, A-549, MCF-7
T2 sequence (P35968 20-1356): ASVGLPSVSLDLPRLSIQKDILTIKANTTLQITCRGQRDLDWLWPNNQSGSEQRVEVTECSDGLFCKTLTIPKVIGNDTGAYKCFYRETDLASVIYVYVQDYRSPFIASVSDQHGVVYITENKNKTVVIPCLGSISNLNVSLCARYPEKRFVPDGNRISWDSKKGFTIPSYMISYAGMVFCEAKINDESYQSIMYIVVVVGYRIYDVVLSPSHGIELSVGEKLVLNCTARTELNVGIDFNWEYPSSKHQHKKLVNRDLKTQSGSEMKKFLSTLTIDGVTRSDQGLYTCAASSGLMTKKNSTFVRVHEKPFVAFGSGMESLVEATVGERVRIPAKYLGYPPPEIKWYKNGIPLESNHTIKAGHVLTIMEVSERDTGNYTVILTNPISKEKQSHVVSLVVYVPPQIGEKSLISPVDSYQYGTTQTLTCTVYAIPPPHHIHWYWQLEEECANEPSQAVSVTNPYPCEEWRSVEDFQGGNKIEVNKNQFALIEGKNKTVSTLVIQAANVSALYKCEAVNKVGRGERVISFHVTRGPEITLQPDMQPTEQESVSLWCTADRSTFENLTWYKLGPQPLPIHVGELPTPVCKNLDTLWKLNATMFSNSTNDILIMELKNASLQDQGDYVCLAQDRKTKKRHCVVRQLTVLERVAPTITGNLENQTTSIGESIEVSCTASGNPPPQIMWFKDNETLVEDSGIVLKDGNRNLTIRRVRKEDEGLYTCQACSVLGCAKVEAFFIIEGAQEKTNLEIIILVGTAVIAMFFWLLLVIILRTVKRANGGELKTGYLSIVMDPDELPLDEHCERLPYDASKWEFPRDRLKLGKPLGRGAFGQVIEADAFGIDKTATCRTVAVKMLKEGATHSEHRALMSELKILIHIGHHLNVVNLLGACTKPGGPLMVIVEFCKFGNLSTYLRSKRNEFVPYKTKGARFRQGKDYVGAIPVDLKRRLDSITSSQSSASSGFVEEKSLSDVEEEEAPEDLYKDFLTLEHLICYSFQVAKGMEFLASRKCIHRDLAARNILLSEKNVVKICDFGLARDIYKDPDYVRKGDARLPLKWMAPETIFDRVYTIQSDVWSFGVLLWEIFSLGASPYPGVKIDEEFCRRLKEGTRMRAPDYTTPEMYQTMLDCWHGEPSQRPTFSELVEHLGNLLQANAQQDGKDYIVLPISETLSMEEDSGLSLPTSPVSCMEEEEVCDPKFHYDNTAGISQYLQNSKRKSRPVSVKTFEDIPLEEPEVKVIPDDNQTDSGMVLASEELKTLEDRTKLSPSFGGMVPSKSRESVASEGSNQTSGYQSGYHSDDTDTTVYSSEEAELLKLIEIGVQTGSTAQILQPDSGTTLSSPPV
Protocol: The presence of both targets in the membrane was relatively determined by using DMSO-treated cells as a negative control.
as §3

PD-L1 = target: T3, PD-L1 (Homo sapiens, UniProt Q9NZQ7); assay: Protein thermal shift (PTS) assay; assay type: binding; conditions: for PTS Tm: PD-L1 melting temperature, DMSO 34 °C; for PTS ΔTm: shift of PD-L1 melting temperature vs DMSO
T3 construct: purchased ab167713
T3 sequence (Q9NZQ7 19-290): as the sequence (Q9NZQ7 19-290) above
Excerpt: This assay measures the melting point (Tm) of the target protein which is a proxy of its stability that can be altered by the binding of a ligand. A change in the melting point relative to the unliganded form implies that a ligand has bound itself to the targeted protein. According to the fundamentals of this technique, an increase in Tm means that the binding of the ligand leads to a stabilization of the target protein, while a decrease in Tm is probably due to the fact that the binding between the ligand and its target leads to a destabilization of the protein. In this case, the tested compounds were able to change the PD-L1 melting temperature.
PTS assay was performed by following the instructions indicated in Protein Thermal ShiftTM Dye Kit (Applied Biosystems reference 4461146), using 2 μL of a 0.1 mg/mL of an aqueous solution of PD-L1 (reference ab167713) and 1.5 μL of a 0.1 mg/mL aqueous solution of the corresponding product. The melting curves were registered by a StepOneTM Real-Time PCR System.

VEGFR-2 kinase activity = assay: ADP assay of kinase activity in HT-29 cells; assay type: cell-based, human; conditions: 100 μM, 24 h; DMSO as negative control
Protocol: Finally, to assess the VEGFR-2 inhibitory activity of the selected compounds, namely 21, 22, and 23, we performed an ADP assay. This is a very useful technique that measures kinase activity by monitoring ADP accumulation in cell cultures instead of ATP concentrations.
For the assay, we used HT-29 cells that were previously treated with a 100 μM concentration of 21, 22, and 23, and we used DMSO as a negative control.
The kinase inhibitory activity of the selected compounds was studied as follows: first 10^5 HT-29 cells were seeded on a 12 well-plate, and then they were treated with 100 μM of the selected compounds for 24 h. Afterward, cells were collected, and the kinase activity was determined from collected pellets by following the manufacturer’s instructions indicated in the ADP Colorimetric Assay Kit II (Abcam S.A. reference ab282932).

HMEC-1 cells = assay: Tube formation on Matrigel (antiangiogenic activity); assay type: cell-based; conditions: 100 μM, 24 h
Protocol: Then we went on to study the effect of these selected compounds on the formation of new capillary networks. Again, HMEC-1 cells were seeded on Matrigel and treated with compounds 21, 22, and 23 at 100 μM. After 24 h of the corresponding treatments, we compared the cultures with non-treated cells, and the results are depicted in Figure 5d–f.
Wells of a IBIDI 15-well μ-plate for angiogenesis were coated with 15 μL of Matrigel® (10 mg/mL, BD Biosciences Europe) at 4 °C. After gelatinization at 37 °C for 30 min, HMEC-1 cells were seeded at 2 × 10^4 cells/well in 25 μL of culture medium on top of the Matrigel and were incubated for 30 min at 37 °C while they were attached.
For the tube-formation assay (study of antiangiogenic activity), 100 μM of compounds was added 20 min after seeding HMEC-1 on Matrigel.

IC50 [1]	mPD-L1 relative detection, A-549 (membrane PD-L1 (mPD-L1))	mPD-L1 relative detection, HT-29 (membrane PD-L1 (mPD-L1); HT-29)	Reduction/inhibition of membrane PD-L1, HT-29 (membrane PD-L1 (mPD-L1); HT-29, compared to non-treated cells)	mPD-L1 relative detection, MCF-7 (membrane PD-L1 (mPD-L1))	mVEGFR-2 relative detection, A-549 [3]	mVEGFR-2 relative detection, HT-29 [3]	Inhibition of membrane VEGFR-2, HT-29 [3]	mVEGFR-2 relative detection, MCF-7 [3]	PTS Tm (PD-L1)	PTS ΔTm (PD-L1)	melting point	Compound	IC50 [2]	Kinase activity measured in HT-29 cell cultures (VEGFR-2 kinase activity)	Antiangiogenic effect on formation of new HMEC-1 capillary networks (HMEC-1 cells)
> 100 µM	>100%	38 ± 5%	around 70%	86 ± 3%	>100%	65% and 65 ± 4%	~40%	>100%	29 °C	−5 °C	164 to 166 °C	Nc1ccc(-c2cn(Cc3ccc(Cl)cc3)nn2)cc1 [Compound 23, 4-(1-(4-chlorobenzyl)-1H-1,2,3-triazol-4-yl)aniline]	> 100 µM	31 ± 8%	interfered with the formation of new microvessel networks
> 100 µM	82 ± 18%	27 ± 5%	–	90 ± 2%	>100%	–	~40%	>100%	26 °C	−8 °C	143 to 144 °C	Nc1ccc(-c2cn(Cc3cccc(Cl)c3)nn2)cc1 [Compound 22, 4-(1-(3-chlorobenzyl)-1H-1,2,3-triazol-4-yl)aniline]	> 100 µM	33 ± 4%	interfered with the formation of new microvessel networks
> 100 µM	95 ± 5%	–	–	83 ± 7%	>100%	92 ± 5%	–	>100%	30 °C	−4 °C	112 to 115 °C	Nc1ccc(-c2cn(Cc3ccccc3Cl)nn2)cc1 [Compound 21, 4-(1-(2-chlorobenzyl)-1H-1,2,3-triazol-4-yl)aniline]	> 100 µM	46 ± 10%	interfered with the formation of new microvessel networks
